Test results from ChEMBL document CHEMBL5365513, “Discovery of Selective Tertiary Amide Inhibitors of Cyclin-Dependent Kinase 2 (CDK2)” (ACS Med Chem Lett, 2023).
In brackets after ≈: the same amount, converted by molar mass. Activity calls are given as the source filed them. The rule behind the calls is not given here.

Columns and labels:
[1] = Antiproliferative activity against human OVISE cells assessed as inhibition of cell division incubated for 16 hrs by EdU incorporation assay; type: functional, cell-based
[2] = Selectivity ratio of Ki for ERK2 (unknown origin) to Ki for CDK2/Cyclin E1 (unknown origin)
[3] = biological target: Cyclin-dependent kinase 2/cyclin E1 (Homo sapiens, UniProt P24941); assay: Binding affinity to CDK2/Cyclin E1 (unknown origin) using Ulight-MBP as substrate assessed as inhibition constant preincubated for 30 mins followed by substrate addition measured after 90 mins in presence of ATP by TR-FRET assay; type: protein-complex assay
[4] = Metabolic stability in human liver microsomes assessed as clearance at 1 uM incubated upto 180 mins by LC/MS-MS analysis; type: ADME, Microsome
[5] = Selectivity ratio of Ki for CDK4/Cyclin D3 (unknown origin) to Ki for CDK2/Cyclin E1 (unknown origin)
[6] = Metabolic stability in mouse liver microsomes assessed as clearance at 1 uM incubated upto 180 mins by LC/MS-MS analysis; type: ADME, Microsome
[7] = Apparent permeability across apical to basolateral side in MDCK cells at 5 uM measured for 60 to 180 mins by LC-MS/MS analysis; type: ADME, cell-based, Canis lupus familiaris; settings: dog, time 60-180 min
[8] = Selectivity ratio of IC50 for human SK-OV-3 cells to IC50 for human OVISE cells; type: functional
[9] = Lipophilicity, logD of compound at pH 7.4; type: physicochemical; settings: buffer
[10] = Volume of distribution at steady state in CD-1 mouse at 1 mg/kg, iv measured for 5 mins by LC-MS/MS analysis; type: ADME, organism-based; settings: in vivo; for Vd: CD-1, mouse, read-out: Vdss
[11] = Half life in CD-1 mouse at 1 mg/kg, iv measured for 5 mins by LC-MS/MS analysis; type: ADME, organism-based; settings: in vivo; for half-life: CD-1, mouse
[12] = tested on: OVCAR-3; assay: Antitumor activity against human OVCAR-3 cells xenografted in C.B-17 SCID.bg mouse assessed as tumor growth inhibition at 80 mg/kg, po qd treated for 3 days relative to control; type: functional; settings: OVCAR-3, 72 h, time 3 day, read-out: TGI
[13] = Protein binding in human plasma assessed as unbound fraction incubated for 24 hrs by HPLC analysis; type: ADME, cell-free
[14] = Kinetic solubility of compound; type: physicochemical; settings: read-out: Kinetic_solubility
[15] = AUC (infinity) in CD-1 mouse at 50 mg/kg, po measured for 24 hrs by LC-MS/MS analysis; type: ADME, organism-based; design: time 24 hrs, dose 50 mg/kg, route po; settings: in vivo
[16] = biological target: Cyclin-dependent kinase 1 (Homo sapiens) (UniProt P06493); assay: Inhibition of CDK1 (unknown origin) at 0.1 uM
Cyclin-dependent kinase 1 (Homo sapiens), sequence (P06493 whole entry, looked up): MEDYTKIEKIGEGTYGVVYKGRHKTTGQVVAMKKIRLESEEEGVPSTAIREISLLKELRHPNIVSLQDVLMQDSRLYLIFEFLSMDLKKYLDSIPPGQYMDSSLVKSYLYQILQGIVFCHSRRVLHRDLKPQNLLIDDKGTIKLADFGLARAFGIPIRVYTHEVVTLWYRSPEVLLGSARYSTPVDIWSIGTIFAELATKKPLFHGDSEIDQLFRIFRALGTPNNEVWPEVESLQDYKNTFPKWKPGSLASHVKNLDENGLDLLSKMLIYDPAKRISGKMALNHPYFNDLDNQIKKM

[17] = Oral bioavailability in CD-1 mouse at 50 mg/kg measured for 24 hrs by LC-MS/MS analysis; type: ADME, organism-based; settings: in vivo
[18] = tested on: MDR1; assay: Efflux ratio of apparent permeability across basolateral to apical side to apical to basolateral side in MDCK-MDR1 cells at 5 uM measured for 60 to 180 mins by LC-MS/MS analysis; type: ADME, cell-based, Canis lupus familiaris; settings: dog, time 60-180 min
[19] = biological target: Mitogen-activated protein kinase 1 (Homo sapiens, UniProt P28482); assay: Binding affinity to ERK2 (unknown origin) using Ulight-MBP as substrate assessed as inhibition constant preincubated for 30 mins followed by substrate addition measured after 90 mins in presence of ATP by TR-FRET assay
Mitogen-activated protein kinase 1, sequence (P28482 whole entry): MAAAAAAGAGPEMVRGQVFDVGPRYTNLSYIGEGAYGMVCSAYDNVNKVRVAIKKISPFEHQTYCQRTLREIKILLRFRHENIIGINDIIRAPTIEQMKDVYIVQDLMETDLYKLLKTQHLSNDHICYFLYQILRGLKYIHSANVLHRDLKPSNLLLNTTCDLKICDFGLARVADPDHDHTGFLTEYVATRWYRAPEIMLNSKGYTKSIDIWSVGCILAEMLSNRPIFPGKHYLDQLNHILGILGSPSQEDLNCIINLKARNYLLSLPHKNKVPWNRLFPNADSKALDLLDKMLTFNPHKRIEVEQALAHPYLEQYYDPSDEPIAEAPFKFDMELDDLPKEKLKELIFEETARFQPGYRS

[20] = Clearance in CD-1 mouse at 1 mg/kg, iv measured for 5 mins by LC-MS/MS analysis; type: ADME, organism-based; settings: in vivo
[21] = Selectivity ratio of Ki for CDK1/Cyclin A2 (unknown origin) to Ki for CDK2/Cyclin E1 (unknown origin)
[22] = tested on: OVCAR-3; assay: Antitumor activity against human OVCAR-3 cells xenografted in C.B-17 SCID.bg mouse assessed as tumor growth inhibition at 50 mg/kg, po bid treated for 3 days relative to control; type: functional; settings: OVCAR-3, 72 h, time 3 day, read-out: TGI
[23] = tested on: OVCAR-3; assay: Antitumor activity against human OVCAR-3 cells xenografted in C.B-17 SCID.bg mouse assessed as tumor growth inhibition at 125 mg/kg, po qd treated for 3 days relative to control; type: functional; settings: OVCAR-3, 72 h, time 3 day, read-out: TGI

SMILES | Ratio Ki [2] | Ki [3] [nM] | CLhep predicted at 1 µM [4] [mL/min/kg] | Ratio Ki [5] | CLhep predicted at 1 µM [6] [mL/min/kg] | Papp A→B at 5 µM [7] [×10⁻⁶ cm/s] | IC50 [1] [nM] | Ratio IC50 [8] | other results
COCc1cc(C(=O)Nc2cc([C@H]3CC[C@@H](OC(=O)NC(C)C)C3)[nH]n2)n(C)n1 [TEGTOCICLIB] | – | – | – | – | – | – | 160 | – | –
CC1CCCCN1C(=O)c1ccc2cnc(NC3CCOCC3)cc2n1 (racemic) | 13 | 750 | – | – | – | – | – | – | –
C[C@@H]1CCCN1C(=O)c1ccc2cnc(NC3CCN(S(C)(=O)=O)CC3)nc2c1 | > 10000 | 0.17 | < 3.9 | 55 | 37 | – | – | – | –
CNS(=O)(=O)c1ccc(Nc2ncc3ccc(C(=O)N4CC[C@@H]4C)nc3n2)c(F)c1 | – | 0.18 | 18 | 250 | 50 | 15 | 38 | 50 | logD [9]: 1.8; Vdss ([10]; mouse, iv, 1 mg/kg, 5 min): 1.1 L/kg; t1/2 ([11]; mouse, iv, 1 mg/kg, 5 min): 17.4 min; inhibition in vivo at 80 mg/kg [12]: 85%; Fu [13]: 0.26%; solubility kinetic [14]: 31 µM (≈ 13.3 µg/mL); AUC(0-inf) [15]: 11 µM·h; inhibition [16]: Active; bioavailability [17]: 9%; efflux ratio at 5 µM [18]: 13
CNS(=O)(=O)c1ccc(Nc2ncc3ccc(C(=O)N4C[C@H](F)C[C@@H]4C)cc3n2)c(C)c1 | – | 8.7 | 14 | 72 | 67 | – | 1500 | 13 | –
O=C(N[C@H](CO)c1ccc(Cl)c(F)c1)c1ccc2cnc(NC3CCOCC3)nc2n1 | – | 6.5 | – | – | – | – | – | – | Ki [19]: 0.17 nM
O=C(c1ccc2cnc(NC3CCOCC3)cc2n1)N1CCCC1 | 6.8 | 88 | – | – | – | – | – | – | –
CS(=O)(=O)N1CCC(Nc2ncc3ccc(C(=O)N4CCCC4)cc3n2)CC1 | 330 | 9 | < 3.9 | 16 | 20 | – | – | – | –
C[C@H]1CCN1C(=O)c1ccc2cnc(NC3CCN(S(C)(=O)=O)CC3)nc2c1 | – | 0.13 | < 3.9 | 16 | < 14 | – | – | – | –
CNS(=O)(=O)c1ccc(Nc2ncc3ccc(C(=O)N4C[C@@H](C#N)[C@@H]4C)nc3n2)c(F)c1 | – | 0.44 | 11 | 186 | 53 | 5 | 53 | 83 | logD [9]: 1.5; Vd [10]: 0.35 L/kg; half-life [11]: 21.6 min; Fu [13]: 0.31%; solubility kinetic [14]: 3 µM (≈ 1.37 µg/mL); AUC(0-inf) [15]: 5.5 µM·h; clearance [20]: 18 mL/min/kg; bioavailability [17]: 3%
C[C@@]1(O)CCC[C@H]1n1c(=O)c(C(F)F)cc2cnc(NC3CCN(S(C)(=O)=O)CC3)nc21 [EBVACICLIB] | – | – | – | – | – | – | 46 | – | –
CNS(=O)(=O)c1ccc(Nc2ncc3ccc(C(=O)N4C[C@@H](O)[C@@H]4C)nc3n2)c(F)c1 | – | 1 | < 3.9 | 89 | < 14 | < 1 | 430 | 47 | –
O=C(N[C@H](CO)c1ccc(Cl)c(F)c1)c1ccc2cnc(NC3CCOCC3)nc2c1 | – | 7.9 | – | – | – | – | – | – | Ki [19]: 0.22 nM
CNS(=O)(=O)c1ccc(Nc2ncc3ccc(C(=O)N4C[C@@H](F)C[C@@H]4C)nc3n2)c(F)c1 | – | 1.1 | 13 | 155 | 56 | 4.9 | 260 | 38 | –
O=C(c1ccc2cnc(NC3CCOCC3)cc2n1)N1CCCCC1 | 4.3 | 920 | – | – | – | – | – | – | –
O=C(c1ccc2cnc(NC3CCOCC3)cc2n1)N1CCCCCC1 | 28 | 240 | – | – | – | – | – | – | –
CC[C@H](Nc1nc(NCc2cnc(C)cc2C)c2ncn(C(C)C)c2n1)[C@@H](C)O [CYC-065] | – | – | – | 57 | – | – | 1100 | – | Ratio Ki [21]: 61
CNS(=O)(=O)c1ccc(Nc2ncc3ccc(C(=O)N4C[C@H](F)[C@@H]4C)nc3n2)c(F)c1 | – | 2.1 | 19 | 41 | 54 | 13 | 360 | 36 | –
O=C(N[C@H](CO)c1ccc(Cl)c(F)c1)c1ccc2cnc(NC3CCOCC3)cc2n1 | – | 11 | – | – | – | – | – | – | Ki [19]: 0.36 nM

Further compounds by falling Ki [3], results first:

Ratio Ki [2] | Ki [3] [nM] | CLhep predicted at 1 µM [4] [mL/min/kg] | Ratio Ki [5] | CLhep predicted at 1 µM [6] [mL/min/kg] | Papp A→B at 5 µM [7] [×10⁻⁶ cm/s] | SMILES | IC50 [1] [nM] | Ratio IC50 [8] | other results
110 | 71 | < 3.9 | 4.2 | 42 | – | C[C@H]1CCCN1C(=O)c1ccc2cnc(NC3CCN(S(C)(=O)=O)CC3)nc2c1 | – | – | –
310 | 17 | 13 | 42 | 58 | – | Cc1cc(S(C)(=O)=O)ccc1Nc1ncc2ccc(C(=O)N3CCC[C@@H]3C)cc2n1 | – | – | –
1.8 | 13 | – | – | – | – | O=C(c1ccc2cnc(NC3CCOCC3)cc2n1)N1CCC1 | – | – | –
– | 0.63 | 12 | 270 | 19 | 1.6 | CNS(=O)(=O)c1ccc(Nc2ncc3ccc(C(=O)N4C[C@@H](F)C[C@@H]4C)nc3n2)c(C)c1 | 250 | 48 | –
– | 0.49 | 16 | 155 | 69 | 12 | CNS(=O)(=O)c1ccc(Nc2ncc3ccc(C(=O)N4C[C@@H](F)C[C@@H]4C)cc3n2)c(C)c1 | 130 | 43 | –
850 | 0.34 | 19 | 150 | 76 | – | CNS(=O)(=O)c1ccc(Nc2ncc3ccc(C(=O)N4CCC[C@@H]4C)cc3n2)cc1 | – | – | –
– | 0.21 | 17 | 271 | 50 | 15 | CNS(=O)(=O)c1ccc(Nc2ncc3ccc(C(=O)N4C[C@@H](F)[C@@H]4C)nc3n2)c(F)c1 | 33 | 88 | –
2800 | 0.18 | < 3.9 | 78 | 30 | – | C[C@H]1CCCN1C(=O)c1ccc2cnc(NC3CCN(S(N)(=O)=O)CC3)nc2c1 | – | – | –
– | 0.18 | 9.4 | 178 | 51 | 17 | CNS(=O)(=O)c1ccc(Nc2ncc3ccc(C(=O)N4C[C@@H](OC)[C@@H]4C)nc3n2)c(F)c1 | 25 | 52 | logD [9]: 1.7; Vd [10]: 0.78 L/kg; half-life [11]: 19.8 min; inhibition in vivo at 50 mg/kg [22]: 112%; Fu [13]: 0.28%; solubility kinetic [14]: 33 µM (≈ 15.2 µg/mL); inhibition in vivo at 125 mg/kg [23]: 81%; AUC(0-inf) [15]: 13 µM·h; clearance [20]: 39 mL/min/kg; inhibition [16]: Active; bioavailability [17]: 25%; efflux ratio at 5 µM [18]: 16
4800 | 0.16 | 18 | 813 | 75 | – | CNS(=O)(=O)c1ccc(Nc2ncc3ccc(C(=O)N4CCC[C@@H]4C)cc3n2)c(C)c1 | – | – | –
